Results from PubChem BioAssay AID222 (DTP/NCI, 2004).
Where “and” joins values, the source holds several entries; their conditions need not be identical. Equal values may be shown once. Inconclusive results and toxic doses are left out.

Test system: C57BL/6 mice, intracerebral ependymoblastoma, median survival T/C
Assay: NCI In Vivo Anticancer Drug Screen. Data for tumor model Ependymoblastoma (intracerebral) in C57BL/6 mice
Conditions: endpoint: median survival time, higher = longer survival
Method: The antitumor activity of compounds was measured in mice bearing transplantable tumors. Survival or tumor size were measured and the results are expressed as the measurement made in the treated group (T) divided by the measurement made in the vehicle treated control group (C). The tumor model used in this assay is Ependymoblastoma (intracerebral) in C57BL/6 mice

Question: Which T/C (dose: 0.12 mg/kg/injection, schedule: Q03HX024 (ip), vehicle: saline) does the source give for `OC(C1CO1)C(O)C1CO1` (stereo unspecified) here?
Answer: 108 % of control

Question: And the T/C (dose: 0.25 mg/kg/injection, schedule: Q01DX001 (ip), vehicle: saline)?
Answer: 102 % of control

Question: And the T/C (dose: 0.25 mg/kg/injection, schedule: Q01DX005 (ip), vehicle: saline)?
Answer: 112 % of control

Question: And the T/C (dose: 0.25 mg/kg/injection, schedule: Q01DX005 (oral), vehicle: saline)?
Answer: 111 % of control

Question: What about the T/C (dose: 0.25 mg/kg/injection, schedule: Q01DX009 (ip), vehicle: saline) of the same compound?
Answer: 101 % of control

Question: And the T/C (dose: 0.25 mg/kg/injection, schedule: Q03HX008 (ip), vehicle: saline)?
Answer: 110 % of control

Question: What about the T/C (dose: 0.25 mg/kg/injection, schedule: Q03HX016 (ip), vehicle: saline) of the same compound?
Answer: 103 % of control

Question: What about the T/C (dose: 0.25 mg/kg/injection, schedule: Q03HX024 (ip), vehicle: saline) of the same compound?
Answer: 99 % of control

Question: And the T/C (dose: 0.5 mg/kg/injection, schedule: Q01DX001 (ip), vehicle: saline)?
Answer: 112 % of control

Question: What about the T/C (dose: 0.5 mg/kg/injection, schedule: Q01DX001 (oral), vehicle: saline) of the same compound?
Answer: 101 % of control

Question: And the T/C (dose: 0.5 mg/kg/injection, schedule: Q01DX005 (ip), vehicle: clinical formulation)?
Answer: 104 % of control

Question: What about the T/C (dose: 0.5 mg/kg/injection, schedule: Q01DX005 (oral), vehicle: saline) of the same compound?
Answer: 110 % of control

Question: What about the T/C (dose: 0.5 mg/kg/injection, schedule: Q01DX009 (ip), vehicle: saline) of the same compound?
Answer: 108 % of control

Question: What about the T/C (dose: 0.5 mg/kg/injection, schedule: Q03HX008 (ip), vehicle: saline) of the same compound?
Answer: 123 % of control

Question: And the T/C (dose: 0.5 mg/kg/injection, schedule: Q03HX016 (ip), vehicle: saline)?
Answer: 107 % of control

Question: And the T/C (dose: 0.5 mg/kg/injection, schedule: Q03HX024 (ip), vehicle: saline)?
Answer: 98 % of control

Question: What about the T/C (dose: 0.5 mg/kg/injection, schedule: Q## X006 (ip), vehicle: clinical formulation) of the same compound?
Answer: 107 % of control

Question: And the T/C (dose: 1.0 mg/kg/injection, schedule: Q01DX001 (ip), vehicle: saline)?
Answer: 95 % of control and 107 % of control

Question: And the T/C (dose: 1.0 mg/kg/injection, schedule: Q01DX001 (oral), vehicle: saline)?
Answer: 108 % of control

Question: And the T/C (dose: 1.0 mg/kg/injection, schedule: Q01DX005 (ip), vehicle: clinical formulation)?
Answer: 116 % of control

Question: What about the T/C (dose: 1.0 mg/kg/injection, schedule: Q01DX005 (oral), vehicle: saline) of the same compound?
Answer: 106 % of control

Question: And the T/C (dose: 1.0 mg/kg/injection, schedule: Q01DX009 (ip), vehicle: saline)?
Answer: 109 % of control

Question: And the T/C (dose: 1.0 mg/kg/injection, schedule: Q03HX016 (ip), vehicle: saline)?
Answer: 113 % of control

Question: And the T/C (dose: 1.0 mg/kg/injection, schedule: Q03HX024 (ip), vehicle: saline)?
Answer: 94 % of control

Question: And the T/C (dose: 1.0 mg/kg/injection, schedule: Q04DX003 (ip), vehicle: saline)?
Answer: 100 % of control

Question: What about the T/C (dose: 1.0 mg/kg/injection, schedule: Q08DX002 (ip), vehicle: saline) of the same compound?
Answer: 108 % of control

Question: And the T/C (dose: 1.0 mg/kg/injection, schedule: Q## X006 (ip), vehicle: clinical formulation)?
Answer: 108 % of control

Question: What about the T/C (dose: 1.0 mg/kg/injection, schedule: Q#A X002 (ip), vehicle: clinical formulation) of the same compound?
Answer: 104 % of control

Question: And the T/C (dose: 1.25 mg/kg/injection, schedule: Q01DX005 (ip), vehicle: saline)?
Answer: 365 % of control

Question: What about the T/C (dose: 2.0 mg/kg/injection, schedule: Q01DX001 (ip), vehicle: clinical formulation) of the same compound?
Answer: 91 % of control and 96 % of control and 107 % of control

Question: What about the T/C (dose: 2.0 mg/kg/injection, schedule: Q01DX001 (ip), vehicle: saline) of the same compound?
Answer: 94 % of control and 100 % of control and 113 % of control

Question: And the T/C (dose: 2.0 mg/kg/injection, schedule: Q01DX001 (oral), vehicle: saline)?
Answer: 108 % of control

Question: And the T/C (dose: 2.0 mg/kg/injection, schedule: Q01DX005 (ip), vehicle: clinical formulation)?
Answer: 115 % of control

Question: What about the T/C (dose: 2.0 mg/kg/injection, schedule: Q01DX005 (oral), vehicle: clinical formulation) of the same compound?
Answer: 106 % of control

Question: And the T/C (dose: 2.0 mg/kg/injection, schedule: Q01DX005 (oral), vehicle: saline)?
Answer: 118 % of control

Question: What about the T/C (dose: 2.0 mg/kg/injection, schedule: Q01DX009 (ip), vehicle: saline) of the same compound?
Answer: 113 % of control

Question: What about the T/C (dose: 2.0 mg/kg/injection, schedule: Q03HX016 (ip), vehicle: saline) of the same compound?
Answer: 118 % of control

Question: What about the T/C (dose: 2.0 mg/kg/injection, schedule: Q03HX024 (ip), vehicle: saline) of the same compound?
Answer: 105 % of control

Question: What about the T/C (dose: 2.0 mg/kg/injection, schedule: Q04DX003 (ip), vehicle: saline) of the same compound?
Answer: 105 % of control

Question: What about the T/C (dose: 2.0 mg/kg/injection, schedule: Q08DX002 (ip), vehicle: saline) of the same compound?
Answer: 102 % of control

Question: And the T/C (dose: 2.0 mg/kg/injection, schedule: Q## X006 (ip), vehicle: clinical formulation)?
Answer: 109 % of control

Question: What about the T/C (dose: 2.0 mg/kg/injection, schedule: Q#A X002 (ip), vehicle: clinical formulation) of the same compound?
Answer: 106 % of control

Question: And the T/C (dose: 2.5 mg/kg/injection, schedule: Q01DX005 (oral), vehicle: saline)?
Answer: 365 % of control

Question: And the T/C (dose: 3.0 mg/kg/injection, schedule: Q01DX005 (ip), vehicle: saline)?
Answer: 119 % of control and 301 % of control

Question: And the T/C (dose: 4.0 mg/kg/injection, schedule: Q01DX001 (ip), vehicle: clinical formulation)?
Answer: 102 % of control and 105 % of control and 108 % of control

Question: What about the T/C (dose: 4.0 mg/kg/injection, schedule: Q01DX001 (ip), vehicle: saline) of the same compound?
Answer: 94 % of control and 120 % of control

Question: And the T/C (dose: 4.0 mg/kg/injection, schedule: Q01DX001 (oral), vehicle: saline)?
Answer: 96 % of control

Question: And the T/C (dose: 4.0 mg/kg/injection, schedule: Q01DX009 (ip), vehicle: saline)?
Answer: 103 % of control

Question: And the T/C (dose: 4.0 mg/kg/injection, schedule: Q03HX008 (ip), vehicle: saline)?
Answer: 97 % of control

Question: And the T/C (dose: 4.0 mg/kg/injection, schedule: Q03HX016 (ip), vehicle: saline)?
Answer: 93 % of control

Question: What about the T/C (dose: 4.0 mg/kg/injection, schedule: Q03HX024 (ip), vehicle: saline) of the same compound?
Answer: 94 % of control

Question: What about the T/C (dose: 4.0 mg/kg/injection, schedule: Q04DX003 (ip), vehicle: saline) of the same compound?
Answer: 95 % of control

Question: And the T/C (dose: 4.0 mg/kg/injection, schedule: Q08DX002 (ip), vehicle: saline)?
Answer: 102 % of control

Question: What about the T/C (dose: 4.0 mg/kg/injection, schedule: Q#A X002 (ip), vehicle: clinical formulation) of the same compound?
Answer: 117 % of control

Question: And the T/C (dose: 5.0 mg/kg/injection, schedule: Q01DX005 (oral), vehicle: saline)?
Answer: 365 % of control

Question: And the T/C (dose: 8.0 mg/kg/injection, schedule: Q01DX001 (ip), vehicle: clinical formulation)?
Answer: 89 % of control and 106 % of control

Question: What about the T/C (dose: 8.0 mg/kg/injection, schedule: Q01DX001 (ip), vehicle: saline) of the same compound?
Answer: 94 % of control and 108 % of control and 112 % of control

Question: And the T/C (dose: 8.0 mg/kg/injection, schedule: Q01DX001 (oral), vehicle: clinical formulation)?
Answer: 91 % of control and 102 % of control and 115 % of control

Question: And the T/C (dose: 8.0 mg/kg/injection, schedule: Q01DX001 (oral), vehicle: saline)?
Answer: 108 % of control

Question: What about the T/C (dose: 8.0 mg/kg/injection, schedule: Q01DX009 (ip), vehicle: saline) of the same compound?
Answer: 107 % of control

Question: And the T/C (dose: 8.0 mg/kg/injection, schedule: Q03HX008 (ip), vehicle: saline)?
Answer: 95 % of control

Question: What about the T/C (dose: 8.0 mg/kg/injection, schedule: Q03HX016 (ip), vehicle: saline) of the same compound?
Answer: 94 % of control

Question: What about the T/C (dose: 8.0 mg/kg/injection, schedule: Q04DX003 (ip), vehicle: saline) of the same compound?
Answer: 122 % of control

Question: What about the T/C (dose: 8.0 mg/kg/injection, schedule: Q08DX002 (ip), vehicle: saline) of the same compound?
Answer: 104 % of control

Question: And the T/C (dose: 8.0 mg/kg/injection, schedule: Q#A X002 (ip), vehicle: clinical formulation)?
Answer: 100 % of control

Question: And the T/C (dose: 16.0 mg/kg/injection, schedule: Q01DX001 (ip), vehicle: clinical formulation)?
Answer: 98 % of control

Question: And the T/C (dose: 16.0 mg/kg/injection, schedule: Q01DX001 (ip), vehicle: saline)?
Answer: 98 % of control and 101 % of control

Question: What about the T/C (dose: 16.0 mg/kg/injection, schedule: Q01DX001 (oral), vehicle: clinical formulation) of the same compound?
Answer: 104 % of control and 108 % of control

Question: And the T/C (dose: 16.0 mg/kg/injection, schedule: Q01DX001 (oral), vehicle: saline)?
Answer: 101 % of control

Question: And the T/C (dose: 16.0 mg/kg/injection, schedule: Q04DX003 (ip), vehicle: saline)?
Answer: 99 % of control

Question: And the T/C (dose: 16.0 mg/kg/injection, schedule: Q08DX002 (ip), vehicle: saline)?
Answer: 104 % of control

Question: And the T/C (dose: 16.0 mg/kg/injection, schedule: Q#A X002 (ip), vehicle: clinical formulation)?
Answer: 102 % of control

Question: What about the T/C (dose: 32.0 mg/kg/injection, schedule: Q01DX001 (ip), vehicle: clinical formulation) of the same compound?
Answer: 100 % of control

Question: And the T/C (dose: 32.0 mg/kg/injection, schedule: Q01DX001 (ip), vehicle: saline)?
Answer: 90 % of control and 100 % of control

Question: And the T/C (dose: 32.0 mg/kg/injection, schedule: Q01DX001 (oral), vehicle: clinical formulation)?
Answer: 100 % of control and 114 % of control

Question: What about the T/C (dose: 32.0 mg/kg/injection, schedule: Q01DX001 (oral), vehicle: saline) of the same compound?
Answer: 103 % of control

Question: What about the T/C (dose: 32.0 mg/kg/injection, schedule: Q04DX003 (ip), vehicle: saline) of the same compound?
Answer: 92 % of control

Question: And the T/C (dose: 32.0 mg/kg/injection, schedule: Q08DX002 (ip), vehicle: saline)?
Answer: 99 % of control

Question: And the T/C (dose: 64.0 mg/kg/injection, schedule: Q01DX001 (ip), vehicle: saline)?
Answer: 97 % of control and 102 % of control

Question: What about the T/C (dose: 64.0 mg/kg/injection, schedule: Q01DX001 (oral), vehicle: clinical formulation) of the same compound?
Answer: 100 % of control

Question: What about the T/C (dose: 128.0 mg/kg/injection, schedule: Q01DX001 (oral), vehicle: clinical formulation) of the same compound?
Answer: 100 % of control
